Experimental data from the NIST ThermoML archive (doi:10.1016/j.fluid.2010.04.008).

Details: Liquid, Ebulliometric method (Recirculating still)

C1COCCN1 [tetrahydro-1,4-oxazine]
Details	vapor or sublimation pressure [kPa]
356.46 K	22.57
359.12 K	24.96
361.7 K	27.47
364.05 K	30.02
366.23 K	32.49
368.27 K	34.95
370.28 K	37.52
372.11 K	40.01
373.84 K	42.47
375.53 K	45.01
377.1 K	47.47
378.63 K	49.95
380.12 K	52.51
381.51 K	54.94
382.87 K	57.53
384.16 K	59.98
385.48 K	62.51
386.71 K	65.04
387.9 K	67.54
389.05 K	69.99
390.19 K	72.56
391.28 K	75.03
392.32 K	77.49
393.36 K	80.02
394.38 K	82.52
395.33 K	85.07
396.32 K	87.48
397.26 K	90.03
398.15 K	92.46
399.11 K	95.07
399.93 K	97.49
400.78 K	100.01
401.24 K	101.32
